Measured values published in patent US20160199351A1, “COMPOSITIONS AND METHODS FOR INHIBITING FUNGAL INFECTIONS” (priority 2015, published 2016).
Values after ≈ are worked out from the molar mass of the structure shown. Where two headings read alike, the source gives them in different places.

What was measured:
Test in all cases: MIC against Candida species (Table 4)
C. parapsilosis = details: 48 h
C. glabrata = details: for MIC50 / MIC: Nakaseomyces glabratus; for MIC: read-out: MIC 100%
C. guilliermondii = details: Meyerozyma guilliermondii

Q: What does the source list for `NCC(=O)Nc1ccc(-n2nc(C(F)(F)F)cc2-c2ccc3c(ccc4ccccc43)c2)cc1` [AR-12, 2-amino-N-(4-(5-(phenanthren-2-yl)-3-(trifluoromethyl)-1H-pyrazol-1-yl)phenyl)acetamide]?
A: MIC (C. parapsilosis; read-out: MIC 100%, isolate CP-7, 48 hrs): 4 µg/mL (≈ 8.69 µM); MIC (C. parapsilosis; read-out: MIC 100%, isolate QC, 48 hrs): 4 µg/mL (≈ 8.69 µM); MIC50 (C. glabrata; 24 h, isolate CG-1, 24 hrs): 4 µg/mL (≈ 8.69 µM); MIC50 (C. glabrata; 24 h, isolate CG-2, 24 hrs): 4 µg/mL (≈ 8.69 µM); MIC50 (C. glabrata; 24 h, isolate CG-3, 24 hrs): 4 µg/mL (≈ 8.69 µM); MIC50 (C. glabrata; 24 h, isolate CG-4, 24 hrs): 4 µg/mL (≈ 8.69 µM); MIC50 (C. glabrata; 24 h, isolate CG-5, 24 hrs): 4 µg/mL (≈ 8.69 µM); MIC50 (C. glabrata; 24 h, isolate CG-6, 24 hrs): 4 µg/mL (≈ 8.69 µM); MIC50 (C. glabrata; 24 h, isolate CG-7, 24 hrs): 2 µg/mL (≈ 4.34 µM); MIC50 (C. glabrata; 24 h, isolate CG-8, 24 hrs): 4 µg/mL (≈ 8.69 µM); MIC50 (C. glabrata; 24 h, isolate CG-9, 24 hrs): 2 µg/mL (≈ 4.34 µM); MIC50 (C. glabrata; 24 h, isolate CG-10, 24 hrs): 2 µg/mL (≈ 4.34 µM); MIC (C. glabrata; 24 h): 4 µg/mL (≈ 8.69 µM); MIC50 (C. glabrata; 48 h, isolate CG-1, 48 hrs): 4 µg/mL (≈ 8.69 µM); MIC50 (C. glabrata; 48 h, isolate CG-2, 48 hrs): 4 µg/mL (≈ 8.69 µM); MIC50 (C. glabrata; 48 h, isolate CG-3, 48 hrs): 4 µg/mL (≈ 8.69 µM); MIC50 (C. glabrata; 48 h, isolate CG-4, 48 hrs): 4 µg/mL (≈ 8.69 µM); MIC50 (C. glabrata; 48 h, isolate CG-5, 48 hrs): 4 µg/mL (≈ 8.69 µM); MIC50 (C. glabrata; 48 h, isolate CG-6, 48 hrs): 4 µg/mL (≈ 8.69 µM); MIC50 (C. glabrata; 48 h, isolate CG-7, 48 hrs): 4 µg/mL (≈ 8.69 µM); MIC50 (C. glabrata; 48 h, isolate CG-8, 48 hrs): 4 µg/mL (≈ 8.69 µM); MIC50 (C. glabrata; 48 h, isolate CG-9, 48 hrs): 4 µg/mL (≈ 8.69 µM); MIC50 (C. glabrata; 48 h, isolate CG-10, 48 hrs): 4 µg/mL (≈ 8.69 µM); MIC (C. glabrata; 48 h): 4 µg/mL (≈ 8.69 µM); MIC 100% (C. glabrata; isolate CG-1, 24 hrs): 4 µg/mL (≈ 8.69 µM); MIC 100% (C. glabrata; isolate CG-1, 48 hrs): 4 µg/mL (≈ 8.69 µM); MIC 100% (C. glabrata; isolate CG-2, 24 hrs): 4 µg/mL (≈ 8.69 µM); MIC 100% (C. glabrata; isolate CG-2, 48 hrs): 4 µg/mL (≈ 8.69 µM); MIC 100% (C. glabrata; isolate CG-4, 24 hrs): 4 µg/mL (≈ 8.69 µM); MIC 100% (C. glabrata; isolate CG-4, 48 hrs): 4 µg/mL (≈ 8.69 µM); MIC 100% (C. glabrata; isolate CG-5, 24 hrs): 4 µg/mL (≈ 8.69 µM); MIC 100% (C. glabrata; isolate CG-5, 48 hrs): 4 µg/mL (≈ 8.69 µM); MIC 100% (C. glabrata; isolate CG-6, 24 hrs): 4 µg/mL (≈ 8.69 µM); MIC 100% (C. glabrata; isolate CG-6, 48 hrs): 4 µg/mL (≈ 8.69 µM); MIC 100% (C. glabrata; isolate CG-7, 24 hrs): 4 µg/mL (≈ 8.69 µM); MIC 100% (C. glabrata; isolate CG-7, 48 hrs): 4 µg/mL (≈ 8.69 µM); MIC 100% (C. glabrata; isolate CG-8, 24 hrs): 4 µg/mL (≈ 8.69 µM); MIC 100% (C. glabrata; isolate CG-8, 48 hrs): 4 µg/mL (≈ 8.69 µM); MIC 100% (C. glabrata; isolate CG-9, 24 hrs): 4 µg/mL (≈ 8.69 µM); MIC 100% (C. glabrata; isolate CG-9, 48 hrs): 4 µg/mL (≈ 8.69 µM); MIC 100% (C. glabrata; isolate CG-10, 24 hrs): 4 µg/mL (≈ 8.69 µM); MIC 100% (C. glabrata; isolate CG-10, 48 hrs): 4 µg/mL (≈ 8.69 µM); MIC50 (C. guilliermondii; 24 h, isolate Cgu-1, 24 hrs): 2 µg/mL (≈ 4.34 µM); MIC50 (C. guilliermondii; 24 h, isolate Cgu-2, 24 hrs): 2 µg/mL (≈ 4.34 µM); MIC50 (C. guilliermondii; 24 h, isolate Cgu-3, 24 hrs): 2 µg/mL (≈ 4.34 µM); MIC50 (C. guilliermondii; 24 h, isolate Cgu-4, 24 hrs): 2 µg/mL (≈ 4.34 µM); MIC50 (C. guilliermondii; 24 h, isolate Cgu-5, 24 hrs): 4 µg/mL (≈ 8.69 µM); MIC50 (C. guilliermondii; 24 h, isolate Cgu-6, 24 hrs): 4 µg/mL (≈ 8.69 µM); MIC50 (C. guilliermondii; 24 h, isolate Cgu-7, 24 hrs): 2 µg/mL (≈ 4.34 µM); MIC (C. guilliermondii; 24 h, read-out: MIC 100%, isolate Cgu-1, 24 hrs): 2 µg/mL (≈ 4.34 µM); MIC (C. guilliermondii; 24 h, read-out: MIC 100%, isolate Cgu-2, 24 hrs): 2 µg/mL (≈ 4.34 µM); MIC (C. guilliermondii; 24 h, read-out: MIC 100%, isolate Cgu-3, 24 hrs): 2 µg/mL (≈ 4.34 µM); MIC (C. guilliermondii; 24 h, read-out: MIC 100%, isolate Cgu-4, 24 hrs): 2 µg/mL (≈ 4.34 µM); MIC (C. guilliermondii; 24 h, read-out: MIC 100%, isolate Cgu-5, 24 hrs): 4 µg/mL (≈ 8.69 µM); MIC (C. guilliermondii; 24 h, read-out: MIC 100%, isolate Cgu-6, 24 hrs): 4 µg/mL (≈ 8.69 µM); MIC (C. guilliermondii; 24 h, read-out: MIC 100%, isolate Cgu-7, 24 hrs): 2 µg/mL (≈ 4.34 µM); MIC50 (C. guilliermondii; 48 h, isolate Cgu-1, 48 hrs): 4 µg/mL (≈ 8.69 µM); MIC50 (C. guilliermondii; 48 h, isolate Cgu-2, 48 hrs): 2 µg/mL (≈ 4.34 µM); MIC50 (C. guilliermondii; 48 h, isolate Cgu-3, 48 hrs): 2 µg/mL (≈ 4.34 µM); MIC50 (C. guilliermondii; 48 h, isolate Cgu-4, 48 hrs): 2 µg/mL (≈ 4.34 µM); MIC50 (C. guilliermondii; 48 h, isolate Cgu-5, 48 hrs): 4 µg/mL (≈ 8.69 µM); MIC50 (C. guilliermondii; 48 h, isolate Cgu-6, 48 hrs): 4 µg/mL (≈ 8.69 µM); MIC50 (C. guilliermondii; 48 h, isolate Cgu-7, 48 hrs): 4 µg/mL (≈ 8.69 µM); MIC (C. guilliermondii; 48 h, read-out: MIC 100%, isolate Cgu-1, 48 hrs): 4 µg/mL (≈ 8.69 µM); MIC (C. guilliermondii; 48 h, read-out: MIC 100%, isolate Cgu-2, 48 hrs): 4 µg/mL (≈ 8.69 µM); MIC (C. guilliermondii; 48 h, read-out: MIC 100%, isolate Cgu-3, 48 hrs): 4 µg/mL (≈ 8.69 µM); MIC (C. guilliermondii; 48 h, read-out: MIC 100%, isolate Cgu-4, 48 hrs): 2 µg/mL (≈ 4.34 µM); MIC (C. guilliermondii; 48 h, read-out: MIC 100%, isolate Cgu-5, 48 hrs): 4 µg/mL (≈ 8.69 µM); MIC (C. guilliermondii; 48 h, read-out: MIC 100%, isolate Cgu-6, 48 hrs): 4 µg/mL (≈ 8.69 µM); MIC (C. guilliermondii; 48 h, read-out: MIC 100%, isolate Cgu-7, 48 hrs): 4 µg/mL (≈ 8.69 µM)
